Test results published in ChEMBL document CHEMBL1201862, “PubChem BioAssay data set” (2004).
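96-well plates; 48 h exposure; 5 concentrations. Endpoints by linear interpolation between flanking doses. Not reached: highest tested concentration assigned. The concentration for 50% growth inhibition is given as GI50.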 Active and inactive are the calls of the source. Rule as the data show it: active = GI50 up to about 1.1 µM and inactive = higher.

Key:
Test in all cases: NCI anticancer screen, dose series, 48 h
HCT-15 = tested on: HCT-15
OVCAR-4 = tested on: OVCAR-4
SF-268 = tested on: SF-268
SF-295 = tested on: SF-295
PC-3 = tested on: PC-3
SR = tested on: SR
NCI-H460 = tested on: NCI-H460
786-0 = tested on: 786-0
EKVX = tested on: EKVX
COLO 205 = tested on: COLO 205
NCI/ADR-RES = tested on: NCI/ADR-RES
HCC 2998 = tested on: HCC 2998
NCI-H23 = tested on: NCI-H23
SK-MEL-2 = tested on: SK-MEL-2
KM12 = tested on: KM12
SK-MEL-5 = tested on: SK-MEL-5
IGROV-1 = tested on: IGROV-1
SW-620 = tested on: SW-620
Malme-3M = tested on: Malme-3M
A549 = tested on: A549
HT-29 = tested on: HT-29
UACC-62 = tested on: UACC-62
HOP-62 = tested on: HOP-62
DU-145 = tested on: DU-145
OVCAR-8 = tested on: OVCAR-8
UO-31 = tested on: UO-31
SF-539 = tested on: SF-539
HCT-116 = tested on: HCT-116
LOX IMVI = tested on: LOX IMVI
NCI-H226 = tested on: NCI-H226
OVCAR-5 = tested on: OVCAR-5
MOLT-4 = tested on: MOLT-4
SK-MEL-28 = tested on: SK-MEL-28
CCRF-CEM = tested on: CCRF-CEM
U-251 = tested on: U-251
MDA-MB-231 = tested on: MDA-MB-231
SNB-19 = tested on: SNB-19
RXF 393 = tested on: RXF 393
T47D = tested on: T47D
HOP-92 = tested on: HOP-92
M14 = tested on: M14
RPMI-8226 = tested on: RPMI-8226
SK-OV-3 = tested on: SK-OV-3
BT-549 = tested on: BT-549
K562 = tested on: K562
MDA-N = tested on: MDA-N
OVCAR-3 = tested on: OVCAR-3
SNB-75 = tested on: SNB-75
A498 = tested on: A498
NCI-H522 = tested on: NCI-H522
MCF7 = tested on: MCF7
MDA-MB-435 = tested on: MDA-MB-435
Hs-578T = tested on: Hs-578T
HL-60 = tested on: HL-60
ACHN = tested on: ACHN
SN12C = tested on: SN12C
TK-10 = tested on: TK-10
UACC-257 = tested on: UACC-257
CAKI-1 = tested on: CAKI-1

SMILES: COCn1c(=O)n(C)c(=O)c2c1nc1c(c(=O)n(C)c(=O)n1COC)[n+]2[O-]
- GI50 (HCT-15): 4.22 µM
- GI50 (OVCAR-4): 4.85 µM (inactive)
- GI50 (SF-268): 6.65 µM (inactive)
- GI50 (SF-295): 7.55 µM (inactive)
- GI50 (PC-3): 5.07 µM (inactive)
- GI50 (SR): 3.77 µM (inactive)
- GI50 (NCI-H460): 3.15 µM (inactive)
- GI50 (786-0): 18.4 µM (inactive)
- GI50 (EKVX): 7.85 µM (inactive)
- GI50 (COLO 205): 12.5 µM (inactive)
- GI50 (NCI/ADR-RES): 59 µM (inactive)
- GI50 (HCC 2998): 5.33 µM (inactive)
- GI50 (NCI-H23): 3.29 µM (inactive)
- GI50 (SK-MEL-2): 12.6 µM (inactive)
- GI50 (KM12): 13.3 µM (inactive)
- GI50 (SK-MEL-5): 5.83 µM (inactive)
- GI50 (IGROV-1): 7.36 µM (inactive)
- GI50 (SW-620): 11.1 µM (inactive)
- GI50 (Malme-3M): 5.47 µM (inactive)
- GI50 (A549): 23.4 µM (inactive)
- GI50 (HT-29): 18.8 µM (inactive)
- GI50 (UACC-62): 7.01 µM (inactive)
- GI50 (HOP-62): 9.23 µM (inactive)
- GI50 (DU-145): 17.1 µM (inactive)
- GI50 (OVCAR-8): 5.7 µM (inactive)
- GI50 (UO-31): 24.9 µM (inactive)
- GI50 (SF-539): 14.6 µM (inactive)
- GI50 (HCT-116): 10.6 µM (inactive)
- GI50 (LOX IMVI): 6.68 µM (inactive)
- GI50 (NCI-H226): 10.1 µM (inactive)
- GI50 (OVCAR-5): 25.1 µM (inactive)
- GI50 (MOLT-4): 4.19 µM (inactive)
- GI50 (SK-MEL-28): 35.9 µM (inactive)
- GI50 (CCRF-CEM): 5.37 µM (inactive)
- GI50 (U-251): 5.85 µM (inactive)
- GI50 (MDA-MB-231): 15.3 µM (inactive)
- GI50 (SNB-19): 13.7 µM (inactive)
- GI50 (RXF 393): 0.789 µM (active)
- GI50 (T47D): 3.13 µM (inactive)
- GI50 (HOP-92): 3.61 µM (inactive)
- GI50 (M14): 10.3 µM (inactive)
- GI50 (RPMI-8226): 9.1 µM (inactive)
- GI50 (SK-OV-3): 7.03 µM (inactive)
- GI50 (BT-549): 10.3 µM (inactive)
- GI50 (K562): 4.75 µM (inactive)
- GI50 (MDA-N): 4.32 µM (inactive)
- GI50 (OVCAR-3): 10.6 µM (inactive)
- GI50 (SNB-75): 2.75 µM (inactive)
- GI50 (A498): 31.2 µM (inactive)
- GI50 (NCI-H522): 8.97 µM (inactive)
- GI50 (MCF7): 20.4 µM (inactive)
- GI50 (MDA-MB-435): 5.75 µM (inactive)
- GI50 (Hs-578T): 8.55 µM (inactive)
- GI50 (HL-60): 12.7 µM (inactive)
- GI50 (ACHN): 5.73 µM (inactive)
- GI50 (SN12C): 7.08 µM (inactive)
- GI50 (TK-10): 8.69 µM (inactive)
- GI50 (UACC-257): 18.2 µM (inactive)
- GI50 (CAKI-1): 20.3 µM (inactive)

SMILES: COc1cc([C@@H]2c3[nH]c4ccccc4c3C(Nc3ccc([N+](=O)[O-])cc3)[C@H]3COC(=O)N23)cc(OC)c1O (stereo partly specified)
- GI50 (HCT-15): 1.96 µM
- GI50 (OVCAR-4): 1.74 µM (inactive)
- GI50 (SF-268): 0.299 µM (active)
- GI50 (SF-295): 0.125 µM (active)
- GI50 (PC-3): 0.698 µM (active)
- GI50 (SR): 0.0481 µM (active)
- GI50 (NCI-H460): < 0.0181 µM (active)
- GI50 (786-0): 0.177 µM (active)
- GI50 (EKVX): 1.78 µM (inactive)
- GI50 (COLO 205): 0.548 µM (active)
- GI50 (NCI/ADR-RES): > 86.3 µM (inactive)
- GI50 (HCC 2998): 0.392 µM (active)
- GI50 (NCI-H23): 0.111 µM (active)
- GI50 (SK-MEL-2): 0.847 µM (active)
- GI50 (KM12): 0.326 µM (active)
- GI50 (SK-MEL-5): 0.0914 µM (active)
- GI50 (IGROV-1): 0.406 µM (active)
- GI50 (SW-620): 0.248 µM (active)
- GI50 (Malme-3M): 0.161 µM (active)
- GI50 (A549): 0.0531 µM (active)
- GI50 (HT-29): 0.228 µM (active)
- GI50 (UACC-62): 0.195 µM (active)
- GI50 (HOP-62): 0.0873 µM (active)
- GI50 (DU-145): 0.321 µM (active)
- GI50 (OVCAR-8): 0.285 µM (active)
- GI50 (UO-31): 1.27 µM (inactive)
- GI50 (SF-539): 0.124 µM (active)
- GI50 (HCT-116): 0.365 µM (active)
- GI50 (LOX IMVI): 0.0822 µM (active)
- GI50 (NCI-H226): 0.138 µM (active)
- GI50 (OVCAR-5): 0.369 µM (active)
- GI50 (MOLT-4): 0.014 µM (active)
- GI50 (SK-MEL-28): 0.291 µM (active)
- GI50 (CCRF-CEM): 0.0395 µM (active)
- GI50 (U-251): 0.147 µM (active)
- GI50 (MDA-MB-231): 0.352 µM (active)
- GI50 (SNB-19): 0.127 µM (active)
- GI50 (RXF 393): 0.382 µM (active)
- GI50 (T47D): 0.466 µM (active)
- GI50 (HOP-92): 0.229 µM (active)
- GI50 (M14): 0.321 µM (active)
- GI50 (RPMI-8226): 0.0652 µM (active)
- GI50 (SK-OV-3): 0.269 µM (active)
- GI50 (BT-549): 0.611 µM (active)
- GI50 (K562): 0.179 µM (active)
- GI50 (MDA-N): 0.875 µM (active)
- GI50 (OVCAR-3): 0.382 µM (active)
- GI50 (SNB-75): 0.175 µM (active)
- GI50 (A498): 0.14 µM (active)
- GI50 (NCI-H522): 0.407 µM (active)
- GI50 (MCF7): 0.0361 µM (active)
- GI50 (MDA-MB-435): 0.505 µM (active)
- GI50 (Hs-578T): 0.305 µM (active)
- GI50 (HL-60): < 0.01 µM (active)
- GI50 (ACHN): 0.118 µM (active)
- GI50 (SN12C): 0.187 µM (active)
- GI50 (TK-10): 0.446 µM (active)
- GI50 (UACC-257): 0.857 µM (active)
- GI50 (CAKI-1): 0.247 µM (active)

SMILES: Cc1ccc([N+](=O)[O-])cc1S(=O)(=O)Nc1ccc(C2=NOC(c3cccs3)C2)cc1 (stereo unspecified)
- GI50 (HCT-15): 4.75 µM
- GI50 (OVCAR-4): 9.42 µM (inactive)
- GI50 (SF-268): 18.4 µM (inactive)
- GI50 (SF-295): 3.9 µM (inactive)
- GI50 (PC-3): 8.93 µM (inactive)
- GI50 (SR): 2.05 µM (inactive)
- GI50 (NCI-H460): 9.66 µM (inactive)
- GI50 (786-0): 17.5 µM (inactive)
- GI50 (EKVX): 19.9 µM (inactive)
- GI50 (COLO 205): 7.8 µM (inactive)
- GI50 (NCI/ADR-RES): 4.13 µM (inactive)
- GI50 (HCC 2998): 9.25 µM (inactive)
- GI50 (NCI-H23): 17.6 µM (inactive)
- GI50 (SK-MEL-2): 4.81 µM (inactive)
- GI50 (KM12): 7.18 µM (inactive)
- GI50 (SK-MEL-5): 7.66 µM (inactive)
- GI50 (IGROV-1): 11.1 µM (inactive)
- GI50 (SW-620): 7.5 µM (inactive)
- GI50 (Malme-3M): 13.9 µM (inactive)
- GI50 (A549): 12.1 µM (inactive)
- GI50 (HT-29): 12.5 µM (inactive)
- GI50 (UACC-62): 3.78 µM (inactive)
- GI50 (HOP-62): 5.79 µM (inactive)
- GI50 (DU-145): 17.6 µM (inactive)
- GI50 (OVCAR-8): 22.9 µM (inactive)
- GI50 (UO-31): 6.25 µM (inactive)
- GI50 (SF-539): 13.5 µM (inactive)
- GI50 (HCT-116): 11.1 µM (inactive)
- GI50 (LOX IMVI): 11 µM (inactive)
- GI50 (NCI-H226): 25.1 µM (inactive)
- GI50 (OVCAR-5): 32.3 µM (inactive)
- GI50 (MOLT-4): 4.04 µM (inactive)
- GI50 (SK-MEL-28): 20.1 µM (inactive)
- GI50 (CCRF-CEM): 8.93 µM (inactive)
- GI50 (MDA-MB-231): 18.7 µM (inactive)
- GI50 (SNB-19): 13.8 µM (inactive)
- GI50 (RXF 393): 5.02 µM (inactive)
- GI50 (T47D): 12.8 µM (inactive)
- GI50 (HOP-92): 19.9 µM (inactive)
- GI50 (M14): 5.98 µM (inactive)
- GI50 (RPMI-8226): 10.4 µM (inactive)
- GI50 (SK-OV-3): 14.2 µM (inactive)
- GI50 (BT-549): 13.2 µM (inactive)
- GI50 (K562): 3.58 µM (inactive)
- GI50 (MDA-N): 2.74 µM (inactive)
- GI50 (OVCAR-3): 5.19 µM (inactive)
- GI50 (SNB-75): 16.1 µM (inactive)
- GI50 (A498): 4.56 µM (inactive)
- GI50 (NCI-H522): 3.2 µM (inactive)
- GI50 (MCF7): 5.73 µM (inactive)
- GI50 (MDA-MB-435): 2.53 µM (inactive)
- GI50 (Hs-578T): 20 µM (inactive)
- GI50 (HL-60): 3.55 µM (inactive)
- GI50 (ACHN): 14.8 µM (inactive)
- GI50 (SN12C): 17.9 µM (inactive)
- GI50 (TK-10): 16.4 µM (inactive)
- GI50 (UACC-257): 16.9 µM (inactive)
- GI50 (CAKI-1): 18.7 µM (inactive)
